Experimental data reported in ChEMBL document CHEMBL1201862, “PubChem BioAssay data set” (2004).
Active and inactive are the calls of the source.

Key:
cells [1] = assay type: functional, cell-based
[2] = molecular target: T1, Trace amine-associated receptor 1 (Homo sapiens, UniProt Q96RJ0); experiment: Counterscreen for agonists of the human trace amine associated receptor 1 (hTAAR1): Fluorescence-based cell-based high throughput dose response assay to identify hTAAR1 agonist that also desensitize TAAR1 receptor response.; assay type: functional
T1 sequence (Q96RJ0 whole entry): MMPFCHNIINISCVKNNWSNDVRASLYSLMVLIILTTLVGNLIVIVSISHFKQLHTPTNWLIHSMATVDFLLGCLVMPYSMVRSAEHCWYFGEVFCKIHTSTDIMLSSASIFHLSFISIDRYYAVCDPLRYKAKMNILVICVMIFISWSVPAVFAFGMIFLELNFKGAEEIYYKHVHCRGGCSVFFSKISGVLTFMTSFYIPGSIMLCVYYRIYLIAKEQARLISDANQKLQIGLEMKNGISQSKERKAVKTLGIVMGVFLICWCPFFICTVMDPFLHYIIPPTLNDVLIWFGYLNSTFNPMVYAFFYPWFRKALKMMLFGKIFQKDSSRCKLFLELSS

cells [3] = assay type: functional, cell-based; remark: listed apart in the source
[4] = molecular target: T1, Trace amine-associated receptor 1; experiment: Fluorescence-based cell-based high throughput dose response assay to identify agonists of the human trace amine associated receptor 1 (TAAR1).; assay type: functional
cells [5] = assay type: functional, cell-based; conditions: HEK-CNG
Galanin receptor type 3 = molecular target: T2, Galanin receptor type 3 (Homo sapiens, UniProt O60755); experiment: Fluorescence-based cell-based primary high throughput dose response assay to identify antagonists of the Galanin Receptor 3 (GalR3).; assay type: functional
T2 sequence (O60755 whole entry): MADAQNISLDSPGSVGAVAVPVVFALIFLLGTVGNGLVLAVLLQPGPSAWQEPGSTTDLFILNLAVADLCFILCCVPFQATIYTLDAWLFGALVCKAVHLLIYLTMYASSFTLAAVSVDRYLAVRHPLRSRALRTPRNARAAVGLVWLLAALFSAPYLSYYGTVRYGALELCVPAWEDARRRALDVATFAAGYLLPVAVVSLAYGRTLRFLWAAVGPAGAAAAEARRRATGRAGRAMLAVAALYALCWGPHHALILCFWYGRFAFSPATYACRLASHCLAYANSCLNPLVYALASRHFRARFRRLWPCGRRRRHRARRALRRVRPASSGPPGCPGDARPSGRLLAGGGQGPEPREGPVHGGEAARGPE

[6] = molecular target: T3, Tyrosine-protein phosphatase non-receptor type 5 (Homo sapiens, UniProt P54829); experiment: STEP phosphatase inhibitors, confirmation, biochemical, fluorescence intensity, uHTS hits (AID 602372); assay type: functional; conditions: read-out: IC50_Mean
T3 sequence (P54829 whole entry): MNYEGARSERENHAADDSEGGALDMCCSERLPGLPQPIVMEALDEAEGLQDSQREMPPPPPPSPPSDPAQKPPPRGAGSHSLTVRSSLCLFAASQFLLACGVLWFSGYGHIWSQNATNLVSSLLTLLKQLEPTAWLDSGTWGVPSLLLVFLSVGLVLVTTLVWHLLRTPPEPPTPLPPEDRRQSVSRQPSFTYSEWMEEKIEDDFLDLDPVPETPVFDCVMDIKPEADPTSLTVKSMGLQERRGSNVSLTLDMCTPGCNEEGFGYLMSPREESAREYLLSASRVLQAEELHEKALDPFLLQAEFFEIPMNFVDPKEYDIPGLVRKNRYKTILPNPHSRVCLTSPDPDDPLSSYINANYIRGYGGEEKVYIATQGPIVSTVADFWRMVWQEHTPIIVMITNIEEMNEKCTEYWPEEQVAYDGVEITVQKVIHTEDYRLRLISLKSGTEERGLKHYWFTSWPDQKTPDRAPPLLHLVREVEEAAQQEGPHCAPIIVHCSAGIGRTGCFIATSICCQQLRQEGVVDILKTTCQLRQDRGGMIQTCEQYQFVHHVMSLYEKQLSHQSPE

[7] = molecular target: Dual specificity protein phosphatase 3 (Homo sapiens, UniProt P51452); experiment: VHR phosphatase inhibition, dose response, selectivity assay for STEP inhibitor project, biochemical (AID 602374); assay type: functional; conditions: read-out: IC50_Mean
Dual specificity protein phosphatase 3, sequence (P51452 whole entry): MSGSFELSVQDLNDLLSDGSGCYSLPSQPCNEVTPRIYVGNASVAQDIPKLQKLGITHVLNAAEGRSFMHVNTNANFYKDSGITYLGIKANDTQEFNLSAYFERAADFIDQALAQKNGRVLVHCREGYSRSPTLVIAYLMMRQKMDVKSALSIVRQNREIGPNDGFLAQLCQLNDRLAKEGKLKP

[8] = molecular target: T4, Tyrosine-protein phosphatase non-receptor type 11 (Homo sapiens, UniProt Q06124); experiment: SHP2 phosphatase inhibition, dose response, selectivity assay for STEP inhibitor project, biochemical (AID 602367); assay type: functional; conditions: read-out: IC50_Mean
T4 sequence (Q06124 whole entry): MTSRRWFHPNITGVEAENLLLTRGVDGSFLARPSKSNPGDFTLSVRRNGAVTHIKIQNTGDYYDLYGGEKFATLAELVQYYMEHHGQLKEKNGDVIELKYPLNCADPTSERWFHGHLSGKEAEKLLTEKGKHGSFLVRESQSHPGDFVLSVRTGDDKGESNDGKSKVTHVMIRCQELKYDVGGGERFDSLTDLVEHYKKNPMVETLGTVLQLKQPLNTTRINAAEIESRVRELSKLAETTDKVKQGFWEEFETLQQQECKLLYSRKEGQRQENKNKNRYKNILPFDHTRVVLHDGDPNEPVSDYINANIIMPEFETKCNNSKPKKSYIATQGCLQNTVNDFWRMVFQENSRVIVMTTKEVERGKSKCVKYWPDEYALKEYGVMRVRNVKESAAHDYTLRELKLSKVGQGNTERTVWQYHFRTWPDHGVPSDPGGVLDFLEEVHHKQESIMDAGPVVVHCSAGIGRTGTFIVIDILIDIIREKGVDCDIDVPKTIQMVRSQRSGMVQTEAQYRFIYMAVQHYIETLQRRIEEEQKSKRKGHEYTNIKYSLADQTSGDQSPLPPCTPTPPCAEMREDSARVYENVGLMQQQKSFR

[9] = molecular target: T5, Carboxy-terminal domain RNA polymerase II polypeptide A small phosphatase 1 (Homo sapiens, UniProt Q9GZU7); experiment: inhibitors of CTDSP1, concentration-response testing, biochemical assay, absorbance-based, actives from ultra-high-throughput screening (AID 540297); assay type: functional
T5 sequence (Q9GZU7 whole entry): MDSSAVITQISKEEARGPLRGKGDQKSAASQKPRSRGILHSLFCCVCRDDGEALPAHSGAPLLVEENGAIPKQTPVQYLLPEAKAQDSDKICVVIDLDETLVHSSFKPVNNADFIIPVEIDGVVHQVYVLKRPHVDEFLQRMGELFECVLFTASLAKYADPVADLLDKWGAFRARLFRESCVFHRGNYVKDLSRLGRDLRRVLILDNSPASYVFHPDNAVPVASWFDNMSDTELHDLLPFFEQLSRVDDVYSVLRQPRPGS

[10] = cytotoxicity in KRAS-transformed pancreatic duct cells, primary screen, cell-based, fluorescence, HTS (AID 431); assay type: functional; conditions: Homo sapiens;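 also: cell line used: HPDE-C7K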
[11] = cytotoxicity in HPDE-C7 cells, cell-based, fluorescence, HTS (AID 430); assay type: functional; conditions: Homo sapiens
[12] = molecular target: Disintegrin and metalloproteinase domain-containing protein 17 (Homo sapiens, UniProt P78536); experiment: ADAM17 protease inhibitors, dose response, counter-screen for ADAM10 exosite inhibitor project, biochemical, quenched FRET substrate (AID 743253)
Disintegrin and metalloproteinase domain-containing protein 17, sequence (P78536 whole entry, the tested form may be a part): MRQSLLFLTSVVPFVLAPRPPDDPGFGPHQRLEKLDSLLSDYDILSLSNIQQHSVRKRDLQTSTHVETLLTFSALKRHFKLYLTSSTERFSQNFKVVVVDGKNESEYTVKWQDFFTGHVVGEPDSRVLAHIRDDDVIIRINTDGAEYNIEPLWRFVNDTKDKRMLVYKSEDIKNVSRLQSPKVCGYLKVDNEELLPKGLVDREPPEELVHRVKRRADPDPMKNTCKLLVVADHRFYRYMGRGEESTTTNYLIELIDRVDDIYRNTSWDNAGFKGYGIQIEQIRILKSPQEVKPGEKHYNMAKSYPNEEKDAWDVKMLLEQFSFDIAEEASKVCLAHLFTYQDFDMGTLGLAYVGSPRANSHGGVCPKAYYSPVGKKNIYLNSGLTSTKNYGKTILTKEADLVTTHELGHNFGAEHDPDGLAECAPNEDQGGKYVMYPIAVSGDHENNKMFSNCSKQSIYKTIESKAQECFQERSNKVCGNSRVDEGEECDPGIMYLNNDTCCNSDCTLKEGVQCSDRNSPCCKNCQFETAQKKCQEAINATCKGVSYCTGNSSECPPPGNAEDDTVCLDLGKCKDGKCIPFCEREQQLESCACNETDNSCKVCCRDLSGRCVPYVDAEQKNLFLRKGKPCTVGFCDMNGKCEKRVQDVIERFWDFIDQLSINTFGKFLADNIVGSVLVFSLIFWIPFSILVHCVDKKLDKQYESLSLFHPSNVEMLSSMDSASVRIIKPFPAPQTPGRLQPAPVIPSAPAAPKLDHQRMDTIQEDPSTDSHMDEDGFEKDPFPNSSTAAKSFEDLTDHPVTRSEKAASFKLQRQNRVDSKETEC

[13] = ADAM10 inhibitors, peptide cleavage, dose response, biochemical, QFRET (AID 743254);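 also: ADAM10 enzyme with the DM2 quenched FRET peptide as substrate; EDANS fluorescence gain as the protease cuts the substrate; inhibitor potency against ADAM10 proteolytic activity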

| SMILES | IC50 (cells [1]) | IC50 [2] | EC50 (cells [3]) | EC50 [4] | also measured |
| --- | --- | --- | --- | --- | --- |
| COc1cc(C(C)=O)ccc1OCC(O)CNCC(O)c1ccccc1 (configuration not stated) | > 29.9 µM (inactive) | 12.3 µM (inactive) | > 29.9 µM (inactive) | 2.13 µM (active) |  |
| O=C(C(=O)c1cc(Br)ccc1O)c1cc(Br)ccc1O |  |  |  |  | EC50 (cells [5]): > 29.9 µM (inactive); IC50 (Galanin receptor type 3): 1.1 µM (active) |
| c1ccc2c(c1)CCN(c1nc3cc4c(cc3s1)OCO4)C2 | > 29.9 µM (inactive) | 2.96 µM (active) | > 29.9 µM (inactive) | 0.751 µM (active) |  |
| O=C(COc1ccc([N+](=O)[O-])cc1)Nc1nnc(-c2cccnc2)s1 |  |  |  |  | IC50 [6]: 59.9 µM (inactive); IC50 [7]: 4.25 µM (active); IC50 [8]: 2.44 µM (active); IC50 [9]: 5.51 µM (active) |
| O=C(CCN1CCc2ccccc2CC1)c1ccc2c(c1)OCCO2 | > 29.9 µM (inactive) | 0.828 µM (active) | > 29.9 µM (inactive) | 0.254 µM (active) | EC50 [10]: 11.3 µM (active); EC50 [11]: 13.1 µM (active) |
| CCCCC[C@H](C)N1C[C@@H](COCc2ccccc2)Oc2cc(N3CC[C@H](O)C3)ccc2S1(=O)=O |  |  |  |  | IC50 [12]: > 69.5 µM (inactive); IC50 [13]: 8.14 µM (active) |
